Measurements published in ChEMBL document CHEMBL1126797 (J Med Chem, 1993).

Legend:
[1] = test system: Mus musculus; experiment: Relative survival in L1210 lymphoid leukemic mice after subcutaneous administration on days1,4,6,8 at dose of 1.5 mg/kg; assay type: functional
[2] = test system: Mus musculus; experiment: Highest active dose in L1210 lymphoid leukemic mice at dose range of 0.3-1.5 mg/kg; assay type: functional
[3] = test system: L1210; experiment: Log of initial tumor cell population minus log of tumor cell population at end of treatment in L1210 lymphoid leukemic mice; assay type: functional, Mus musculus
[4] = test system: HT-29; experiment: Tumor volume in HT-29 cells after subcutaneous administration on days 16,20,23,27,30,34,37,41,44,48 at dose of 1.5 mg/kg; assay type: functional, Homo sapiens
[5] = organism: Mus musculus; experiment: Number of L1210 lymphoid leukemic mice cured out of […]; assay type: functional
[6] = organism: Mus musculus; experiment: Percent median survival time of treated leukemic mice compared to control; assay type: functional
[7] = test system: Mus musculus; experiment: Relative survival in RAW117-H10 cells implanted mice in comparison to control at dose of 1.5 mg/kg; assay type: functional
[8] = Number of metastases in K1735-M2 murine melanoma cells after subcutaneous administration on days1,4,6,8 at dose of 1.5 mg/kg; assay type: functional, Mus musculus
[9] = target: T1, DNA topoisomerase 1 (Homo sapiens, UniProt P11387); experiment: Inhibition of Topoisomerase I by cleavage complex formation in human HL-60 cells; assay type: cell-based
T1 sequence (P11387 whole entry): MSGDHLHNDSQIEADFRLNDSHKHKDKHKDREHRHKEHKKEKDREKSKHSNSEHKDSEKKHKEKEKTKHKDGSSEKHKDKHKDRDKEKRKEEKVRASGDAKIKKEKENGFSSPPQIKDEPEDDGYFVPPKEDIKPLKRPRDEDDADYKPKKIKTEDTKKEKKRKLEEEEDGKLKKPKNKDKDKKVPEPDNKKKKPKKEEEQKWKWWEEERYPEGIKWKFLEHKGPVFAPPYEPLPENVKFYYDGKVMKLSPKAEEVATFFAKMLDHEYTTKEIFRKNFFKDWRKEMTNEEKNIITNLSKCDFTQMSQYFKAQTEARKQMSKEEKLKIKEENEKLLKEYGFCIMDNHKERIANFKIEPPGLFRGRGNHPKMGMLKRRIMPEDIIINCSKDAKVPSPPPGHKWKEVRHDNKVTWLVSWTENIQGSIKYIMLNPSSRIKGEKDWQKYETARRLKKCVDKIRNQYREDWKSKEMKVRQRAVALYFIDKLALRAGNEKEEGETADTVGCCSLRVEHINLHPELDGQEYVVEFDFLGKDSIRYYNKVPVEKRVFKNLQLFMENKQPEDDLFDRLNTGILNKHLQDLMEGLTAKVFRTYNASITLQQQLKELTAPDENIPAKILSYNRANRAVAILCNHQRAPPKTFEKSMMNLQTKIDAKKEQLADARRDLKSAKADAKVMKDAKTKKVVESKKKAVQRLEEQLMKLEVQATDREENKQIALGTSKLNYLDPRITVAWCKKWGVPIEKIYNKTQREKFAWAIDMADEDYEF

[10] = test system: Mus musculus; experiment: Relative survival in L1210 lymphoid leukemic mice after subcutaneous administration on days 1,4,6,8 at dose of 3 mg/kg; assay type: functional
[11] = test system: Mus musculus; experiment: Highest active dose in L1210 lymphoid leukemic mice at dose range of 2-4 mg/kg; assay type: functional
[12] = Number of metastases in K1735-M2 murine melanoma cells after subcutaneous administration on days1,4,6,8 at dose of 3 mg/kg; assay type: functional, Mus musculus
[13] = test system: Mus musculus; experiment: Relative survival in RAW117-H10 cells implanted mice in comparison to control at dose of 3 mg/kg; assay type: functional
[14] = organism: Mus musculus; experiment: Toxic dose in L1210 lymphoid leukemic mice; assay type: toxicity, organism-based; settings: in vivo
[15] = test system: L1210; experiment: Toxic dose in L1210 murine lymphoid leukemia at dose of 20 mg/kg after i.v. drug dosing on hours 1 and 5; NT means not toxic; assay type: toxicity, organism-based; design: dose 20 mg/kg, route intravenous; settings: mouse, in vivo, iv
[16] = test system: L1210; experiment: Log of initial tumor cell population minus log of tumor cell population at end of treatment after i.v. drug dosing on hours 1 and 5; assay type: functional, Mus musculus
[17] = target: T1, DNA topoisomerase 1; experiment: Inhibition of Topoisomerase I by cleavage complex formation in intact human HL-60 cells; assay type: cell-based
[18] = test system: Mus musculus; experiment: Median survival time of treated/control animals x 100 after i.v. drug dosing on hours 1 and 5; assay type: functional
[19] = test system: Mus musculus; experiment: Number of L1210 mice cured after i.v. drug dosing on hours 1 and 5; assay type: functional
[20] = test system: Mus musculus; experiment: Highest active dose in L1210 lymphoid leukemic mice after i.v. drug dosing on hours 1 and 5 at dose range of 1.25-20 mg/kg; assay type: functional
[21] = test system: L1210; experiment: Toxic dose in L1210 murine lymphoid leukemia after i.v. drug dosing on hours 1 and 5; NT means not toxic at 20 mg/kg; assay type: toxicity, organism-based; design: dose 20 mg/kg, route intravenous; settings: mouse, in vivo, iv
[22] = test system: Mus musculus; experiment: Highest active dose in L1210 lymphoid leukemic mice at dose of 5.3-12 mg/kg; assay type: functional
[23] = organism: Mus musculus; experiment: Toxic dose to L1210 lymphoid leukemic mice; assay type: toxicity, organism-based; settings: in vivo
[24] = test system: Mus musculus; experiment: Highest active dose in L1210 lymphoid leukemic mice at range of 5-20 mg/kg; assay type: functional
[25] = test system: Mus musculus; experiment: Highest active dose in L1210 lymphoid leukemic mice at range of 3.63-15.5 mg/kg; assay type: functional
[26] = test system: HT-29; experiment: Tumor volume in HT-29 cells after subcutaneous administration on days 16,20,23,27,30,34,37,41,44,48 at dose of 3.5 mg/kg; assay type: functional, Homo sapiens
[27] = Number of metastases in K1735-M2 murine melanoma cells after subcutaneous administration on days1,4,6,8 at dose of 3.5 mg/kg; assay type: functional, Mus musculus
[28] = test system: Mus musculus; experiment: Relative survival in RAW117-H10 cells implanted mice in comparison to control at dose of 3.5 mg/kg; assay type: functional
[29] = test system: Mus musculus; experiment: Relative survival in L1210 lymphoid leukemic mice after subcutaneous administration on days 1,4,6,8 at dose of 3.5 mg/kg; assay type: functional
[30] = test system: Mus musculus; experiment: Relative survival in RAW117-H10 cells implanted mice in comparison to control at dose of 6 mg/kg; assay type: functional
[31] = Number of metastases in K1735-M2 murine melanoma cells after subcutaneous administration on days1,4,6,8 at dose of 6 mg/kg; assay type: functional, Mus musculus
[32] = test system: Mus musculus; experiment: Relative survival in L1210 lymphoid leukemic mice after subcutaneous administration on days1,4,6,8 at dose of 6 mg/kg; assay type: functional
[33] = test system: Mus musculus; experiment: Highest active dose in L1210 lymphoid leukemic mice at dose range of 2.37-12.00 mg/kg; assay type: functional
[34] = test system: Mus musculus; experiment: Highest active dose in L1210 lymphoid leukemic mice at range of 1.25-20 mg/kg; assay type: functional
[35] = test system: Mus musculus; experiment: Highest active dose in L1210 lymphoid leukemic mice at range of 1.35-3.74 mg/kg; assay type: functional
[36] = test system: Mus musculus; experiment: Highest active dose in L1210 lymphoid leukemic mice at dose of 2-4.5 mg/kg; assay type: functional
[37] = test system: Mus musculus; experiment: Highest active dose in L1210 lymphoid leukemic mice at range of 10-80 mg/kg; assay type: functional
[38] = test system: Mus musculus; experiment: Highest active dose in L1210 lymphoid leukemic mice at dose range of 10-40 mg/kg; assay type: functional
[39] = test system: Mus musculus; experiment: Highest active dose in L1210 lymphoid leukemic mice at dose range of 2.5-20 mg/kg after i.v. drug dosing on hours 1 and 5; assay type: functional
[40] = test system: Mus musculus; experiment: Median survival time of treated/control L1210 leukemic mice after i.v. drug dosing on hours 1 and 5; assay type: functional
[41] = test system: Mus musculus; experiment: Toxic dose in L1210 lymphoid leukemic mice at dose of 20 mg/kg after i.v. drug dosing on hours 1 and 5; NT means not toxic; assay type: toxicity, organism-based; design: dose 20 mg/kg, route intravenous; settings: in vivo, iv

| Structure (SMILES) | KE [3] | Cures [5] | T/C [6] [%] | IC50 [9] [µM] | Toxic dose [14] [mg/kg] | further results |
| --- | --- | --- | --- | --- | --- | --- |
| CC[C@@]1(O)C(=O)OCc2c1cc1n(c2=O)Cc2cc3c(N)c4c(cc3nc2-1)OCO4 | 5.8 | 4 | 336 | 0.048 | – | T/C [1]: 1.98; Highest active dose [2]: 1.5 mg/kg; Control [4]: 17%; T/C [7]: 1.25; Control [8]: 17% |
| CCC1(O)C(=O)OCc2c1cc1n(c2=O)Cc2cc3cc4c(cc3nc2-1)OCO4 (racemic) | 5.97 | 2 | 325 | – | 8 | T/C [10]: 1.22; Highest active dose [11]: 2 mg/kg; Control [12]: 65%; T/C [13]: 1.04 |
| CCC1(O)C(=O)OCc2c1cc1n(c2=O)Cc2cc3c(NC(=O)CN)cccc3nc2-1.Cl (racemic) | – | – | – | 0.57 | – | Toxic dose [15]: Non-toxic; KE [16]: 2.95; IC50 [17]: > 30 µM; T/C [18]: 180%; Cures [19]: 0; Highest active dose [20]: 20 mg/kg |
| CCC1(OC(=O)CN)C(=O)OCc2c1cc1n(c2=O)Cc2cc3cc4c(cc3nc2-1)OCO4.Cl (racemic) | – | – | 236 | 0.43 | – | Toxic dose [21]: Not toxic; KE [16]: 5.97; IC50 [17]: 2.5 µM; Cures [19]: 3; Highest active dose [20]: 10 mg/kg |
| CC[C@@]1(O)C(=O)OCc2c1cc1n(c2=O)Cc2cc3ccccc3nc2-1 [CAMPTOTHECIN] | 4.8 | 1 | 250 | – | 10 | Highest active dose [22]: 12 mg/kg |
| CCC1(O)C(=O)OCc2c1cc1n(c2=O)Cc2cc3cc(Cl)ccc3nc2-1 (racemic) | 5.97 | 2 | 280 | – | – | Toxic dose [23]: 40 mg/kg; Highest active dose [24]: 10 mg/kg |
| CCC1(O)C(=O)OCc2c1cc1n(c2=O)Cc2cc3cc([N+](=O)[O-])ccc3nc2-1 (racemic) | 5.97 | 0 | 233 | – | 31 | Highest active dose [25]: 7.25 mg/kg |
| CC[C@@](O)(C(=O)[O-])c1cc2n(c(=O)c1CO)Cc1cc3c(N)c4c(cc3nc1-2)OCO4.[Na+] | – | – | – | 4.3 | – | Control [26]: 38%; Control [27]: 51%; T/C [28]: 1.75; T/C [29]: 2.56 |
| CCC(O)(C(=O)[O-])c1cc2n(c(=O)c1CO)Cc1cc3c(N)c4c(cc3nc1-2)OCO4.[Na+] (racemic) | – | – | – | 5.5 | – | T/C [30]: 1.4; Control [31]: 98%; T/C [32]: 1.78 |
| CC[C@@]1(O)C(=O)OCc2c1cc1n(c2=O)Cc2cc3c(Cl)cccc3nc2-1 | 0 | 0 | 150 | 0.086 | – | Highest active dose [33]: 12 mg/kg |
| CCC1(O)C(=O)OCc2c1cc1n(c2=O)Cc2cc3c([N+](=O)[O-])cccc3nc2-1 (centres undefined) | 5.97 | 5 | 348 | – | 40 | Highest active dose [34]: 10 mg/kg |
| CCC1(O)C(=O)OCc2c1cc1n(c2=O)Cc2cc3cc(N)ccc3nc2-1 (racemic) | 5.97 | 3 | 365 | – | 6.25 | Highest active dose [35]: 3.75 mg/kg |
| CC[C@@]1(O)C(=O)OCc2c1cc1n(c2=O)Cc2cc3cc(N)ccc3nc2-1 | >5.99 | 6 | 565 | 0.14 | – | Highest active dose [36]: 4.5 mg/kg |
| CCC1(O)C(=O)OCc2c1cc1n(c2=O)Cc2cc3cc(C)ccc3nc2-1 (racemic) | 4.66 | 0 | 207 | – | – | Highest active dose [37]: 10 mg/kg |
| CCC1(O)C(=O)OCc2c1cc1n(c2=O)Cc2cc3c(O)cccc3nc2-1 (racemic) | – | 0 | 134 | 0.9 | – | Highest active dose [38]: 20 mg/kg |
| CCC(O)(C(=O)[O-])c1cc2n(c(=O)c1CO)Cc1cc3cc([O-])ccc3nc1-2.[Na+].[Na+] (centres undefined) | – | – | – | 3.2 | – | KE [16]: 3.24; Highest active dose [39]: 20 mg/kg; Cures [19]: 0; T/C [40]: 184%; Toxic dose [41]: Non-toxic |
